Test results taken from article PMC8667043, “First-in-Class Inhibitors of the Ribosomal Oxygenase MINA53” (Journal of Medicinal Chemistry, 2021).

What was measured:
HEK293T = assay: MTT cell viability assay; format: cell-based, human; details: 72, 96, 120 h
Protocol: (§1) Human commercially available established cancer cell lines HT-29 colon carcinoma (ATCC, HTB-38), U-87MG glioblastoma (ATCC, HTB-14), and MNK-45 gastric cancer (a gift from Dr. M. Broggini, Mario Negri Institute) were cultured in RPMI medium (Euroclone, Milan, IT) supplemented with 10% inactivated fetal bovine serum (HyClone, Thermo Scientific, South Logan, UT), 1% L-glutamine (Euroclone), and 100 μg/mL penicillin/streptomycin (Euroclone). HEK293T and HeLa cells were cultured in Dulbecco’s Modified Eagle Medium (DMEM, Gibco) supplemented with 10% (v/v) fetal bovine serum (FBS, Sigma) and 100 international units/mL (IU/mL) penicillin and 100 μg/mL streptomycin (Gibco). The cells were routinely tested for mycoplasma contamination and STR-authenticated.
(§2) Twenty-four hours following seeding, exponentially growing cells were treated with the different compounds at concentrations ranging from 10 to 100 μM for 72–120 h. Aqueous DMSO (0.5%, v/v) was used as a control (untreated). Cell viability was determined by the 3-(4,5-dimethylthiazol-2-yl)-2,5-diphenyltetrazolium bromide (MTT) colorimetric assay (Sigma-Aldrich). In summary, exponentially growing cancer cells were seeded in sextuplicate in 96-well culture plates (1.5 × 10^3 cells/well). After 24 h, the compounds were added at concentrations ranging from 10 to 100 μM. The effect of compounds on cancer cell proliferation was assessed by measuring the MTT dye absorbance of the cells as reported.[52] […] The effect of different compounds or combinations (drug concentration ratio 1:20, doxorubicin: compound) on U-87MG cancer cell viability was assessed by measuring the MTT dye absorbance of cells. The interaction between doxorubicin (Doxo) and different compounds was evaluated based on the combination index (CI) using the CI equation through CalcuSyn software (Biosoft, Cambridge, U.K.). […]
(§3) Figure S17. Antiproliferative effects of M INA53 inhibitors on HeLa (A) and HEK293T (B) cells as determined by the MTT method after exposure for 72, 96, and 120 h to the negative control 1, and the MINA53 inhibitors 9 and 10. […]

U-87MG cells = assay: Western blot of H2AX serine 139 phosphorylation (γ-H2AX); format: cell-based, human; set-up: dose or concentration left out as unconfirmed; details: time-dependent (2, 4, 8 h)
Protocol: Proteins were transferred onto nitrocellulose or PVDF membranes and incubated with rabbit γ-H2AX (#9718, Cell Signaling Technologies, MA) anti-GAPDH (Sc47724, Santa Cruz Biotechnology, Santa Cruz, CA), rabbit anti-RPL27A (Abcam, ab74731), goat anti-RPL8 (Abcam, ab63941), horseradish peroxidase (HRP)-conjugated anti-HA (Roche, 12013819001), and HRP-conjugated anti-β-actin (Abcam, ab-49900).
Figure S19. Western blot analysis and relative densitometric analysis of the phosphorylated form of H2AX (ser139) on U-8 7MG glioma cells exposed for the indicated times to 1 (negative control), […]
Doxorubicin was used as a positive control (0.5 μM, 8 h). GAPDH expression was used as a control loading. Results are express ed as f old changes over […]

MV4-11 = assay: WST-1 cell proliferation assay; format: cell-based; details: Homo sapiens, AML, WST-1, 48 h, read-out: IC50 antiproliferative effect, MV4-11
Protocol: (§4) The effect of compounds on cell proliferation of different leukemia and lymphoma cell lines OCI-AML3 (DSMZ ACC-582), IMS-M2 (a gift from Professor B. Falini, University of Perugia), OCI-AML2 (DSMZ, ACC-99), MV4–11 (ATCC, CRL-9591), Kasumi-1 (ATCC, CRL-2724), Karpass299 (DSMZ, ACC-31), U937 (ATCC, CRL1593.2), HL-60 (ATCC, CCL-240), and NB4 (DSMZ, ACC-207) was evaluated using the WST-1 assay (Roche Diagnostic GmbH Germany). The cells were plated, in triplicate, in 384-viewplate (Perkin Elmer) at a density of 5 × 10^3 cells/well in a final volume of 22.5 μL. The cells were incubated with increasing concentrations of compounds for 48 h at 37 °C, 5% CO2, then 2.5 μL of WST-1 reagent was added to each well for 1 h. For each cell line, dose–response curves were analyzed as nonlinear regression curves using GraphPad Prism (GraphPad Software Inc.) to obtain IC50 values.

HL-60 = assay: WST-1 cell proliferation assay; format: cell-based; details: Homo sapiens, APL, WST-1, 48 h, read-out: IC50 antiproliferative effect, HL-60
Protocol: as §4

Kasumi-1 = assay: WST-1 cell proliferation assay; format: cell-based; details: Homo sapiens, AML, WST-1, 48 h, read-out: IC50 antiproliferative effect, Kasumi-1
Protocol: as §4

U-87MG malignant glioma = assay: MTT cell viability assay; format: cell-based, human; details: 72, 96, 120 h, 10 to 100 μM, 10′ to a similar extent as 10
Protocol: as §1
(§5) Twenty-four hours following seeding, exponentially growing cells were treated with the different compounds at concentrations ranging from 10 to 100 μM for 72–120 h. Aqueous DMSO (0.5%, v/v) was used as a control (untreated). Cell viability was determined by the 3-(4,5-dimethylthiazol-2-yl)-2,5-diphenyltetrazolium bromide (MTT) colorimetric assay (Sigma-Aldrich). In summary, exponentially growing cancer cells were seeded in sextuplicate in 96-well culture plates (1.5 × 10^3 cells/well). After 24 h, the compounds were added at concentrations ranging from 10 to 100 μM. The effect of compounds on cancer cell proliferation was assessed by measuring the MTT dye absorbance of the cells as reported.[52] For combination treatments, the cells were treated with each of three compounds, either alone or in combination with doxorubicin. In particular, U-87MG cells were treated with doxorubicin alone or in combination with different MINA53 inhibitors for 24 h. The effect of different compounds or combinations (drug concentration ratio 1:20, doxorubicin: compound) on U-87MG cancer cell viability was assessed by measuring the MTT dye absorbance of cells. The interaction between doxorubicin (Doxo) and different compounds was evaluated based on the combination index (CI) using the CI equation through CalcuSyn software (Biosoft, Cambridge, U.K.). Synergism CI < 0.9, additivity 0.9 < CI < 1.1, antagonism CI > 1.1.

HT-29 colon carcinoma = assay: MTT cell viability assay; format: cell-based, human; details: 72, 96, 120 h, 10 to 100 μM, 10′ to a similar extent as 10
Protocol: as §1, §5

MNK-45 gastric carcinoma = assay: MTT cell viability assay; format: cell-based, human; details: 72, 96, 120 h, 10 to 100 μM, 10′ to a similar extent as 10
Protocol: as §1, §5

HeLa cervical carcinoma = assay: MTT cell viability assay; format: cell-based; details: 72, 96, 120 h
Protocol: as §1, §2, §3

| Structure (SMILES) | effect on cell viability, HEK293T (HEK293T) | γ-H2AX (H2AX serine 139 phosphorylation) (U-87MG cells) | IC50 (MV4-11) [µM] | IC50 (HL-60) [µM] | IC50 (Kasumi-1) [µM] | effect on cell viability, U-87MG (U-87MG malignant glioma) | effect on cell viability, HT-29 (HT-29 colon carcinoma) | effect on cell viability, MNK-45 (MNK-45 gastric carcinoma) | effect on cell viability, HeLa (HeLa cervical carcinoma) |
| --- | --- | --- | --- | --- | --- | --- | --- | --- | --- |
| O=C(O)c1c[nH]c(=S)[nH]c1=O [compound 1] | no effect | not increased | > 100 | > 100 | > 100 | no effect | no effect | no effect | no effect |
| O=C(O)c1cnc(SCCc2ccccc2)[nH]c1=O [compound 9, 2-(Phenethylthio)-3,4-dihydro-4-oxopyrimidine-5-carboxylic Acid] | sensitivity | strong γ-H2AX increase | > 100 | 73 ± 3 | > 100 | sensitive | only a marginal effect | sensitive | sensitive |
| O=C(O)c1cnc(SCCCc2ccccc2)[nH]c1=O [compound 10, 2-((3-Phenylpropyl)thio)-3,4-dihydro-4-oxopyrimidine-5-carboxylic Acid] | sensitivity | strong γ-H2AX increase | > 100 | 14 ± 2 | > 100 | sensitive | only a marginal effect | sensitive | sensitive |
